From patent publication US20090280067A1, “CRYSTAL FORM OF 8-HYDROXY-5-[(1R)-1-HYDROXY-2-[[(1R)-2-(4-METHOXYPHENYL)-1-METHYLETHYL]AMINO]ETHYL]-2(1H)-QUINOLINONE MONOHYDROCHLORIDE” (Chiesi Farmaceutici S.p.A., priority 2008, published 2009)

Assay: Stability studies: storage at room temperature under different relative humidity conditions, checked by XRPD pattern
Type: physicochemical
Details: 25° C., 40%, 60%, 80%, 30%, 40% RH, 1 week each
Method: The XRPD analyses were carried out on a PANanalytical X'pert Pro X-ray powder diffractometer using Cu Kα radiation. The instrument was equipped with a X'Celerator detector. A theta-two theta continuous scan from 2.5 degrees 2 theta to 40 degrees 2 theta was used. Each sample is prepared for analysis by placing it in a quartz sample holder. The XPRD patterns are reported in terms of degrees 2 theta (°2θ, accuracy ±0.1°), diffraction peak intensity (height, [cts]), full width at half maximum (FWHM, [°2θ]), interatomic spacing in angstroms (d-spacing, [Å]), and relative intensities (%). The relative intensity is recorded as the ratio of the peak intensity to that of the most intense peak.
In order to check its thermodynamic stability, the CHF 4226 crystal form E was stored at room temperature under different relative humidity (RH) conditions: • 40% RH. and 25° C. for 1 week • 60% RH. and 25° C. for 1 week • 80% RH and 25° C. for 1 week • 60% RH and 25° C. for 1 week • 40% RH and 25° C. for 1 week • 30% RH and 25° C. for 1 week • 40% RH and 25° C. for 1 week. The thermodynamic stability of all the samples was checked by recording their XPRD pattern.

Structure (SMILES): COc1ccc(C[C@@H](C)NC[C@H](O)c2ccc(O)c3[nH]c(=O)ccc23)cc1.Cl [CHF 4226 crystal form E, 8-hydroxy-5-[(1R)-1-hydroxy-2-[[(1R)-2-(4-methoxyphenyl)-1-methylethyl]amino]ethyl]-2(1H)-quinolinone monohydrochloride]
- thermodynamic stability (XPRD pattern) after storage: stable features under all stability screening conditions
